Data from patent publication US11485708B2, “Compounds for treatment of PD-L1 diseases” (CHEMOCENTRYX, INC., priority 2019, dated 2022).

target: human PD-L1 / Human PD-1 (Homo sapiens (Human), UniProt Q9NZQ7); assay: Enzyme-Linked Immunosorbent Assay (ELISA), PD-1/PD-L1 binding; settings: plates coated with human PD-L1, biotinylated human PD-1 added
Method: 96 Well plates were coated with 1 μg/mL of human PD-L1 (obtained from R&D) in PBS overnight at 4′° C. The wells were then blocked with 2% BSA in PBS (W/V) with 0.05% TWEEN-20 for 1 hour at 37′° C. The plates were washed 3 times with PBS/0.05% TWEEN-20 and the compounds were serial diluted (1:5) in dilution medium and added to the ELISA plates. Human PD-1 and biotin 0.3 μg/mL (ACRO Biosystems) were added and incubated for 1 hour at 37° C. then washed 3 times with PBS/0.05% TWEEN-20. A second block was performed with 2% BSA in PBS (WNV)/0.05% TWEEN-20 for 10 min at 37° C. and the plates were washed 3 times with PBS/0.05% TWEEN-20. Streptavidin-HIRP was added for 1 hour at 37° C. then the plates were washed 3 times with PBS/0.05% TWEEN-20. TMB substrate was added and reacted for 20 min at 37° C. A stop solution (2 N aqueous H2SO4) was added. The absorbance was read at 450 nm using a micro-plate spectrophotometer.

human PD-L1 / Human PD-1, sequence (Q9NZQ7 19-239): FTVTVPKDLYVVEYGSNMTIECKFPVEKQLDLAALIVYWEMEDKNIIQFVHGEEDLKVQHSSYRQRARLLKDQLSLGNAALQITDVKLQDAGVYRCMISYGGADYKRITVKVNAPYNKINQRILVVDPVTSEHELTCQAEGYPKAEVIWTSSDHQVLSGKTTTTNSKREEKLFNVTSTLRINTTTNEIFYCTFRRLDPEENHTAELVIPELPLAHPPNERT

IC50 [nM] | Compound
< 1000 | Cc1cc(-c2cccc(-c3cccc(OCCCN4CCC(F)CC4)c3C)c2C)ccc1CN(C)C [Compd 1.083]
< 1000 | COc1cc(-c2cccc(-c3cccc(OCCCN4CCC(F)CC4)c3C)c2C)cc(F)c1CN(C)C [Compd 1.078]
< 1000 | Cc1c(OCCCN2[C@H](C)CC[C@H]2C)cccc1-c1cccc(-c2ccc([C@@H](C)N)cc2)c1C [Compd 1.099]
< 1000 | COc1cc(-c2cccc(-c3cccc(-c4cc(F)c(CN5CCC(O)CC5)c(OC)c4)c3C)c2C)cc(F)c1CN1CCC(O)CC1 [Compd 1.043, 1,1′-((3,3′″-difluoro-5,5′″-dimethoxy-2′,2″-dimethyl-[1,1′:3′,1″:3″,1′″-quaterphenyl]-4,4′″-diyl)bis(methylene))bis(piperidin-4-ol)]
< 1000 | COc1cc(-c2cccc(-c3cccc(-c4cc(F)c(CN(C)CCCC(=O)O)c(OC)c4)c3C)c2C)cc(F)c1CN(C)CCCC(=O)O [Compd 1.058]
< 1000 | COc1cc(-c2cccc(-c3cccc(-c4ccc(CN)c(F)c4)c3C)c2C)cc(F)c1CN [Compd 1.037]
1000 to 10000 | Cc1c(OCCCN2CCC2(C)C)cccc1-c1cccc(-c2ccc3c(c2)CCNC3)c1C(F)(F)F [Compd 1.085]
< 1000 | Cc1c(OCCCN2CCCC2(C)C)cccc1-c1cccc(-c2ccc3c(c2)CCNC3)c1C [Compd 1.105]
< 1000 | COc1cc(-c2cccc(-c3cccc(-c4cc(F)c(CN)c(OC)c4)c3C)c2C)ccc1CN [Compd 1.036]
< 1000 | Cc1c(OCCCN2[C@H](C)CC[C@H]2C)cccc1-c1cccc(-c2ccc3c(c2)CCN(CCO)C3)c1C [Compd 1.107]
< 1000 | Cc1c(OCCCN2CCC(F)CC2)cccc1-c1cccc(-c2ccc(CN)cc2F)c1C [Compd 1.082]
< 1000 | Cc1c(OCCCN2CCC2(C)C)cccc1-c1cccc(-c2ccc3c(c2)CNCC3)c1C [Compd 1.124]
< 1000 | COc1cc(-c2cccc(-c3cccc(-c4cc(F)c(CNC(C)C)c(OC)c4)c3C)c2C)cc(F)c1CNC(C)C [Compd 1.048]
< 1000 | Cc1c(OCCCN2CC(O)C2)cccc1-c1cccc(-c2ccc3c(c2)CCNC3)c1C [Compd 1.112]
1000 to 10000 | COc1cc(CNCCCC(=O)O)cc(-c2cccc(-c3cccc(OCCCN4[C@H](C)CC[C@H]4C)c3C)c2C)c1 [Compd 1.065]
< 1000 | Cc1c(OCCCN2[C@H](C)CC[C@H]2C)cccc1-c1cccc(-c2ccc3c(c2)CC(C(=O)O)NC3)c1C (stereo partly shown) [Compd 1.068]
1000 to 10000 | Cc1c(OCCCN2CCC2(C)C)cccc1-c1cccc(-c2ccc3c(c2)CCNC3)c1 [Compd 1.103, 6-(3′-(3-(2,2-dimethylazetidin-1-yl)propoxy)-2′-methyl-[1,1′-biphenyl]-3-yl)-1,2,3,4-tetrahydroisoquinoline]
1000 to 10000 | COc1cc(-c2cccc(-c3cccc(OCCCN4CCC(F)CC4)c3C)c2C)cc(OC)c1CN(C)C [Compd 1.079]
< 1000 | Cc1c(OCCCN2CCC(F)CC2)cccc1-c1cccc(-c2ccc3c(c2)CCNC3)c1C [Compd 1.110]
1000 to 10000 | COc1cc(-c2cccc(-c3cccc(CCN)c3C)c2C)cc(F)c1CN [Compd 1.023]
1000 to 10000 | COc1cc(-c2cccc(-c3cccc(-c4cc(F)c(CN)c(OC)c4)c3C)c2C)ccc1C(=O)O [Compd 1.005]

IC50 [nM] | Compound
1000 to 10000 | Cc1c(OCCCN2CCC(F)CC2)cccc1-c1cccc(-c2ccc(CN(C)C)cc2Cl)c1C [Compd 1.095]
< 1000 | Cc1c(OCCCN2CCC(C)(F)CC2)cccc1-c1cccc(-c2ccc3c(c2)CCNC3)c1C [Compd 1.104]
< 1000 | Cc1c(OCCCN2[C@H](C)CC[C@H]2C)cccc1-c1cccc(-c2ccc3c(c2)CNC3)c1C [Compd 1.120]
< 1000 | CCOc1cc(-c2cccc(-c3cccc(OCCCN4[C@H](C)CC[C@H]4C)c3C)c2C)ccc1CN(C)C [Compd 1.075]
< 1000 | Cc1c(OCCCN2[C@H](C)CC[C@H]2C)cccc1-c1cccc(-c2ccc(C(C)(C)N)cc2)c1C [Compd 1.119]
< 1000 | Cc1c(OCCCN2[C@H](C)CC[C@H]2C)cccc1-c1cccc(-c2ccc3c(c2)CCNC3)c1C [Compd 1.114]
< 1000 | Cc1c(-c2ccc3c(c2)CCNC3)cccc1-c1ccc2c(c1)OCCO2 [Compd 1.126]
< 1000 | Cc1c(OCCCN2[C@H](C)CC[C@H]2C)cccc1-c1cccc(-c2cc(F)c(CNCCCC(=O)O)c(F)c2)c1C [Compd 1.061]
< 1000 | Cc1c(OCCCN2CCC2(C)C)cccc1-c1cccc(-c2ccc3c(c2)CCNC3)c1C [Compd 1.125]
1000 to 10000 | COC(=O)[C@@H]1CCCCN1Cc1ccc(-c2cccc(-c3cccc(OCCCN4CCC(F)CC4)c3C)c2C)cc1 [Compd 1.072]
1000 to 10000 | Cc1c(-c2ccc(CN)cc2)cccc1-c1ccc2c(c1)OCCO2 [Compd 1.127]
1000 to 10000 | COc1cccc(-c2cccc(-c3ccc4c(c3)CCNC4)c2C)c1C [Compd 1.115, 6-(3′-methoxy-2,2′-dimethyl-[1,1′-biphenyl]-3-yl)-1,2,3,4-tetrahydroisoquinoline]
< 1000 | COc1cc(-c2cccc(-c3cccc(OCCCN4[C@H](C)CC[C@H]4C)c3C)c2C)ccc1CNCCCC(=O)O [Compd 1.066]
1000 to 10000 | Cc1c(OCCCN2CCC(F)CC2)cccc1-c1cccc(-c2ccc(CN3CCCC[C@H]3C(=O)O)cc2)c1C [Compd 1.071]
< 1000 | COc1cc(-c2cccc(-c3cccc(-c4cc(F)c(CN(C)C)c(OC)c4)c3C)c2C)cc(F)c1CN(C)C [Compd 1.059]
1000 to 10000 | Cc1c(OCCCN2CCC(F)CC2)cccc1-c1cccc(-c2ccc(CN)cc2Cl)c1C [Compd 1.096]
1000 to 10000 | COc1cc(-c2cccc(-c3ccc4c(c3)OC(C3=NCCN3)CO4)c2C)cc(F)c1CN (stereo not shown) [Compd 1.009]
< 1000 | Cc1c(OCCCN2[C@H](C)CC[C@H]2C)cccc1-c1cccc(-c2ccc(CN(C)C)cc2)c1C [Compd 1.122]
< 1000 | COc1cc(-c2cccc(-c3cccc(-c4ccc5c(c4)CCNC5)c3C)c2C)cc(F)c1CNCCO [Compd 1.040, 2-(((3-fluoro-5-methoxy-2′,2″-dimethyl-3″-(1,2,3,4-tetrahydroisoquinolin-6-yl)-[1,1′:3′,1″-terphenyl]-4-yl)methyl)amino)ethan-1-ol]
< 1000 | Cc1c(-c2ccc3c(c2)CCNC3)cccc1-c1cccc(-c2ccc3c(c2)CCNC3)c1C [Compd 1.042]
< 1000 | Cc1c(OCCCN2CCC(F)CC2)cccc1-c1cccc(-c2ccc(CN(C)C)c(Cl)c2)c1C [Compd 1.081]

IC50 [nM] | Compound
1000 to 10000 | COc1cc(CN(C)C)ccc1-c1cccc(-c2cccc(OCCCN3CCC(F)CC3)c2C)c1C [Compd 1.093]
< 1000 | Cc1c(OCCCN2[C@H](C)CC[C@H]2C)cccc1-c1cccc(-c2ccc3c(c2)CC(CO)NC3)c1C (stereo partly shown) [Compd 1.069]
< 1000 | COc1cc(-c2cccc(-c3cccc(OCCCN4[C@H](C)CC[C@H]4C)c3C)c2C)cc2c1CNCC2 [Compd 1.060]
1000 to 10000 | COc1cc(-c2cccc(-c3cccc(-c4cc(F)c(CN)c(OC)c4)c3C)c2C)ccc1CC(=O)O [Compd 1.001]
1000 to 10000 | Cc1c(-c2ccc3c(c2)CNCC3)cccc1-c1ccc2c(c1)OCCO2 [Compd 1.128]
< 1000 | COc1cc(-c2cccc(-c3cccc(-c4cc(F)c(CN(C)C)c(OC)c4)c3C)c2C)cc(F)c1CNCCO [Compd 1.050, 2-(((4′″-((dimethylamino)methyl)-3,3′″-difluoro-5,5′″-dimethoxy-2′,2″-dimethyl-[1,1′:3′,1″:3″,1′″-quaterphenyl]-4-yl)methyl)amino)ethan-1-ol]
< 1000 | COc1c(-c2ccc3c(c2)CCNC3)cccc1-c1cccc(OCCCN2CCC2(C)C)c1C [Compd 1.088, 6-(3′-(3-(2,2-dimethylazetidin-1-yl)propoxy)-2-methoxy-2′-methyl-[1,1′-biphenyl]-3-yl)-1,2,3,4-tetrahydroisoquinoline]
1000 to 10000 | COc1cc(-c2cccc(-c3ccc4c(c3C)CNCC4)c2C)cc(F)c1CNCCO [Compd 1.020]
< 1000 | Cc1c(OCCCN2[C@H](C)CC[C@H]2C)cccc1-c1cccc(-c2ccc(CNCCC(=O)O)cc2)c1C [Compd 1.097]
< 1000 | Cc1c(OCCCN2CCC(F)CC2)cccc1-c1cccc(-c2ccc(CN)cc2)c1C [Compd 1.077]
< 1000 | Cc1c(OCCCN2[C@H](C)CC[C@H]2C)cccc1-c1cccc(-c2ccc(CCN)cc2)c1C [Compd 1.118]
< 1000 | COc1cc(-c2cccc(-c3cccc(-c4cc(F)c(CCN)c(OC)c4)c3C)c2C)cc(F)c1CN [Compd 1.039]
< 1000 | Cc1c(OCCCN2[C@H](C)CC[C@H]2C)cccc1-c1cccc(-c2ccc(CNCCCC(=O)O)cc2)c1C [Compd 1.100]
< 1000 | COc1cc(-c2cccc(-c3cccc(-c4cc(F)c(CN(C)C[C@@H]5CCC(=O)N5)c(OC)c4)c3C)c2C)cc(F)c1CN(C)C[C@@H]1CCC(=O)N1 [Compd 1.047]
1000 to 10000 | COc1cc(-c2cccc(-c3cccc4c3CCNC4)c2C)cc(F)c1CN [Compd 1.022]
< 1000 | COc1cc(-c2cccc(-c3cccc(-c4cc(F)c(CCN)c(OC)c4)c3C)c2C)cc(F)c1CCN [Compd 1.045]
< 1000 | Cc1c(OCCCN2[C@H](C)CC[C@H]2C)cccc1-c1cccc(-c2ccc(CNCC(=O)O)cc2)c1C [Compd 1.101]
< 1000 | Cc1c(OCCCN2CCC2(C)C)cccc1-c1cccc(-c2ccc3c(c2)CNCCC3)c1C [Compd 1.123]
< 1000 | COC(=O)CCCN(C)Cc1c(F)cc(-c2cccc(-c3cccc(-c4cc(F)c(CN(C)CCCC(=O)OC)c(OC)c4)c3C)c2C)cc1OC [Compd 1.057]
